# Assay results from patent US20200305435A1, “SYNERGISTIC COMBINATION OF BIOCIDES” (LONZA LLC, priority 2016, published 2020).
# What was measured:
# Assay in all cases: Minimum inhibitory concentration, microtitre plate doubling dilutions
# Assay type in all cases: cell-based
# Escherichia coli = settings: biocide alone, visual growth after 24 hours at 37° C., read-out: MIC versus organism E.c
# Procedure: (§1) Bacteria were grown to stationary phase (18 h) in nutrient broth (approximately 10^9 organisms per ml). A 0.1% (v/v) inoculum was used to seed fresh medium and 100 μl of this was added to each well of a microtitre plate, except for the first well which contained 200 μl. Using doubling dilutions, the concentration of each antimicrobial was varied in each well along the ordinate axis. The presence or absence of growth was determined by visual inspection after 24 hours incubation at 37° C.
# Ps.a = settings: Pseudomonas aeruginosa; biocide alone; read-out: MIC versus organism Ps.a
# Procedure: as §1
# Staphylococcus aureus = settings: biocide alone, visual growth after 24 hours at 37° C., read-out: MIC versus organism S.a
# Procedure: as §1
# Aspergillus brasiliensis = settings: biocide alone, visual growth after 48 hours at 25° C., read-out: MIC versus organism A.b
# Procedure: (§2) Fungi were grown on malt agar for 7 days at 25° C. to form a mycelial mat and the spore suspension harvested using 10 ml physiological saline (0.85% (w/v) NaCl). This was used as an inoculum as above. The presence or absence of growth was determined by visual inspection after 48 hours incubation at 25° C.
# C. albicans = settings: Candida albicans; biocide alone; read-out: MIC versus organism C.a
# Procedure: as §2
compound,measurement,setting,value
"N=C(NCCCCCCNC(=N)NC(=N)Nc1ccc(Cl)cc1)NC(=N)Nc1ccc(Cl)cc1 [Spectradyne, Chlorhexidine gluconate]",MIC,Escherichia coli,2 µg/mL
same,MIC,Ps.a,4 µg/mL
same,MIC,Staphylococcus aureus,1 µg/mL
same,MIC,Aspergillus brasiliensis,62.5 µg/mL
same,MIC,C. albicans,16 µg/mL
